This is an account of results in patent US9486471B2, “Combination therapy for the treatment of cancer” (McMaster University, priority 2012, dated 2016).

Series [1] has as its system AML-OCI2 and AML-OCI3 cell lines. Nature of the series: Volumetric cell counting of AML cell lines treated with DR antagonists and agonists. Format: cell-based, human. Conditions: 72 h, serum-free conditions.
Procedure: Volumetric Cell Counting. The number of AML-OCI2 and AML-OCI3 cells present after 72 h treatment with DR antagonists (FIG. 16b) and agonist (FIG. 16c-d) were counted by measuring the number of events within a fixed volume following the grating strategy defined by forward scatter and side scatter clustering, 7AAD− and Hoechst+.
Due to the bioavailability of dopamine in fetal bovine serum (FBS) (Little et al., 2002), serum-free conditions were employed to assess the role of DRs in AML.
For a further series, the system named is AML patient blast cells. Nature of the series: Methylcellulose colony-forming assay, AML patient blast-CFU. It is filed as cell-based, human. As to the method: (§1) AML/HPSC Cell Culture. AML cell lines, namely, OCI-AML2 (M4), OCI-AML3 (M4), HL-60 (M2) and MV-4-11(M5) were cultured in RPMI (Gibco) supplemented with 5% heated-inactivated FBS (HyClone). For DR agonist studies with R(+)-7-Hydroxy-DPAT hydrobromide (Sigma), serum-free conditions were employed instead due to the prevalence of dopamine in FBS (Little et al., 2002). AML patient blasts were cultured in IMDM supplemented with 5% heated inactivated FBS (HyClone), 5 ng/mL IL3 (R&D systems), 5×10^−5 M β-mercaptoethanol (Sigma) and BIT (StemCell Technologies). HSC media contained IMDM supplemented with 1% BSA (Sigma), 100 ng/mL SCF (R&D systems), 100 ng/mL Flt-3L (R&D systems) and 20 ng/mL TPO (R&D systems). Patient HSPC and AML samples were treated with compound or DMSO-vehicle (0.1%) for 24 h prior to CFU plating or xenotransplantation studies.
(§2) Methylcellulose Colony-Forming Assay. AML patient or CB lin− cells were cultured 24 hours in the presence of compound or DMSO-vehicle (0.1%) control. AML cells were plated at 50 000 cells/mL in Methocult GF H4434 (Stem Cell Technologies). CB lin− cells were plated at 1000 cells/mL in Methocult GF H4434 (Stem Cell Technologies). Colonies were scored after 14 days of culture using standard morphological criteria.

Series [2] relates to v1H9-Oct4-GFP neoplastic hPSC. Nature of the series: Chemical screening of neoplastic hPSC reporter line (GFP / Hoechst, loss of pluripotency). Format: cell-based, human. Conditions: for activity at 10 µM: read-out: Hoechst % residual activity (% RA); for hit in extended screen (loss of pluripotency): 2446 compound screen, reduced mean GFP intensity and cell count. How it is done:
In Vitro Culture Platform for Normal and Neoplastic hPSCs. Chemical screens involved v1H9-Oct4-GFP cells seeded at 5,000 cells per well in mouse embryonic fibroblast conditioned media (MEFCM) supplemented with 8 ng/ml bFGF. 24 hours later the media was exchanged for MEFCM with compounds at 10 μM and 0.1% DMSO, 0.1% DMSO (−BMP4) or 100 ng/ml of BMP4 and 0.1% DMSO (+BMP4) for 48 hours before being exchanged with fresh media with compound for a further 24 h (total compound treatment time 72 h) prior to being fixed and prepared for automated imaging and plate reader analysis. Confluent H9 & fibroblast-derived iPSC were seeded at 10,000 cells per well in MEFCM supplemented with 8 ng/ml bFGF. 24 hours later the cells were treated with compounds at 10 μM and 0.1% DMSO, 0.1% DMSO (−BMP4) or 100 ng/ml of BMP4 and 0.1% DMSO (+BMP4). Fresh MEFCM supplemented with compounds was exchanged daily for 5 days. On day 5, hPSC's were fixed and prepared for automated imaging and plate reader analysis. See supplementary experimental procedures for further details.
Imaging Neoplastic hPSC. Cells were fixed in 2% paraformaldehyde and stained with 10 μg/mL Hoechst 33342 (Invitrogen) with a Combi Multidrop Dispenser (Thermo). For experiments that involved Oct4 immunocytochemistry, a monoclonal antibody for Oct4 (BD) was used along with an Alexa-Fluor-647 secondary (Invitrogen). Immunocytochemical staining was performed by a Janus automated liquid handler (Perkin Elmer). Images were acquired at 10× N.A with an Arrayscan HCS VTI Reader (Cellomics) by means of epi-fluorescence illumination and standard filter sets.
Image Analysis. Image analysis was performed using custom scripts in Acapella software (Perkin Elmer). Nuclear objects were segmented from the Hoechst signal. For neoplastic cell lines, object intensity analysis was performed on GFP positive cells only. For normal cell lines, the fraction of Alexa-Fluor-647-positive cells was quantified. Images and well-level data were stored and analysed in a Columbus Database (Perkin Elmer) and further data analysis, compounds registration and hit identification in ActivityBase (IDBS).
These Collections have been previously scrutinized in numerous other mammalian cell lines (Diallo et al., 2010; Shoemaker, 2006).

Series [3] deals with AML cell lines HL-60, OCI-AML2 and OCI-AML3. As to the method: All three lines are leukemic cell lines. HL-60 was derived from promyelocytic AML whereas MV 4-11 and OCI-AML3 are representative of AML. Each compound was incubated with the cells for 72 h. The control was DMSO (ie the vehicle used for the compound) for 72 h. Each condition had three replicates.
A series of dopamine receptor agonists, D3-antagonists, DR1 & 5-antagonists and multi-receptor antagonists were tested for cytotoxicity against three AML cell lines HL-60, OCI-AML2 and OCI-AML3. Testing was performed as set out in Example 1.

Series [4] relates to HL-60, MV4-11 and OCI-AML3 leukemic cell lines. Nature of the series: Normalized cell number of leukemic cell lines after 72 h incubation (Examples 1, 3). Conditions: 10 μM. Format: cell-based, human. How it is done:
All three lines are leukemic cell lines. […] Each condition had three replicates.
The dopamine receptor antagonist and phenothiazine-related compound chlorpromazine was also investigated for effects on the AML cell lines HL-60, MV4-11 and OCI-AML3. Testing was performed as set out in Example 1.

The test system of series [5] is p53 and p21 in neoplastic hPSCs. Nature of the series: p53 and p21 accumulation in neoplastic hPSCs. Format: cell-based, human. Conditions: 24 h; 10 μM etoposide, 10 μM thioridazine, BMP4. The text has this:
Antibodies. Antibodies used for immunocytochemistry were the following: Oct3/4 (BD Trunsduction Laboratories, cat#611203), Sox2 (R&D, cat#AF2018). To detect human hematopoietic cells, Pacific Blue-, PE-, APC- or FITC labeled anti-human CD45 was used (BD Biosciences). FITC anti-CD33, PE anti-CD13, FITC anti-CD41a, FITC anti-HLA DR, and PE anti-CD19 antibodies were obtained from BD Pharmingen. PE anti-CD14, PE anti-CD15 and PE anti-GlyA were acquired from Immunotech Beckman Coulter. To determine pluripotency, PE anti-SSEA3 (BD Biosciences) and PE- or AlexaFluor488 anti-Oct4 (BD Biosciences). Rabbit anti-human dopamine receptor antibodies; DRD1 (Cat#324390), DRD2 (Cat#324393), DRD3 (Cat#324402), DRD4 (Cat#324405) and DRD5 (Cat#324408) were sourced from EMD Chemical. Anti-rabbit Alexa-Fluor-488 (Molecular Probes) was used as the secondary antibody. Primary anti-p53 (Cat#2527) and anti-p21 (Cat#2947) rabbit IgG sourced from Cell Signaling Technology were used to stain fixed and permeabilized cells. Anti-rabbit alexa-Fluor-546 (Molecular Probes) was used as the secondary antibody.

For series [6], the system named is neoplastic hPSCs (v1H9-Oct4-GFP). Nature of the series: Flow cytometry of Oct4 in neoplastic hPSCs. Format: cell-based, human.
The test system of series [7] is AML LSCs (CD45+CD33+ blast engraftment). Nature of the series: Xenotransplantation of compound-treated AML cells into NSG mice. It is filed as in vivo. Conditions: 10 μM, 24 h ex vivo treatment. How it is done: Xenotransplantation Assays. NOD.Cg-Prkdc^scid II2rg^tm1Wjl/SzJ adult mice (NSG) were sub-lethally irradiated with 315 rads 24 hours prior transplantation. 0.8-1.0×10^7 AML MNCs or 1.5-1.8×10^5 CB lin-hematopoietic cells treated with compound or DMSO-vehicle for 24 h were injected via tail vein (IV). After 6-10 weeks, animals were culled, and the BM and spleen were analyzed for the presence of human cells by flow cytometry (LSRII, BD) and data was analyzed using FlowJo software (Tree Star Inc). For secondary HSPC transplants, equal number of engrafted human cells from CB lin− transplants were injected IV in adult irradiated NSG mice as described for primary transplants.
To delineate whether the inhibition of AML-blasts detected in vitro was due to the compounds affecting the neoplastic stem cell compartment, xenotransplantation studies (Dick, 2008) that functionally define LSCs and hematopoietic stem cells (HSCs) were conducted (FIG. 12).

Series [8] deals with hematopoietic stem and progenitor cells (HSPC, CB lin-). Nature of the series: Methylcellulose colony-forming assay, HSPC (CB lin-). As to the method:
as §1, §2

[9] abbreviates: Homo sapiens, 10 μM, 590 compound screen.

By EC50 is commonly meant the concentration at which the effect is half-maximal.

Structures can show the parent of a compound that is named as a salt. Where two headings read alike, the source gives them in different places.

As to `Br.CCCN(CCC)[C@@H]1CCc2ccc(O)cc2C1` [7OH-DPAT, R(+)-7-Hydroxy-DPAT hydrobromide], the “number of AML cells” value in series [1] was “increased the number of AML cells”.

For `Nc1ccn([C@@H]2O[C@H](CO)[C@@H](O)[C@@H]2O)c(=O)n1` [AraC, Arabinofuranosyl Cytidine], in the series with AML patient blast cells (concentration that reduced AML-blast-CFU while retaining HSPC function, single drug), the “effective concentration (ECArac)” value is reported as 100 nM.

`Oc1cc2c(cc1O)[C@@H](c1ccccc1)CNCC2` [SKF38393, (R)-(+)-SKF-38393 hydrochloride]: the “number of AML cells” value in series [1] is recorded as “significant reduction”.

Turning to `Cn1cnc([N+](=O)[O-])c1Sc1ncnc2nc[nH]c12` [azathioprine], in series [2] (setting [9]), the activity at 10 µM is over 30%.

With `CN(C)CCCN1c2ccccc2Sc2ccc(Cl)cc21` [chlorpromazine, Chlorpromazine hydrochloride], the “cytotoxicity of AML cell lines” value in series [3] is on record as “significant effect”. Moreover, the cell count result in series [3] (72 h, relative to control) is “eradicate the AML cell lines”. Also, the “number of AML cells” value in [1] is “reduced the number of AML cells”. Further, in [4], the “normalized cell number / toxicity” value is reported as “toxic”.

Regarding `CN1CCN(C2=Nc3cc(Cl)ccc3Nc3ccccc32)CC1` [clozapine, Clozapine], the “cytotoxicity of AML cell lines” value in series [3] is listed as “significant effect”.

In the case of `COc1cc([C@@H]2c3cc4c(cc3[C@@H](O[C@@H]3O[C@@H]5CO[C@@H](C)O[C@H]5[C@H](O)[C@H]3O)[C@H]3COC(=O)[C@H]23)OCO4)cc(OC)c1O` [etoposide], in series [5], the “accumulation of cell stress marker p53” value was “high levels” and the “accumulation of p21” value is recorded as “high levels”.

Turning to `OCCN1CCN(CCCN2c3ccccc3Sc3ccc(C(F)(F)F)cc32)CC1` [fluphenazine], the “hit in extended screen (loss of pluripotency)” value in series [2] was “hits”.

As to `CNC1CC(c2ccc(Cl)c(Cl)c2)c2ccccc21` (stereo not shown) [indatraline], the activity at 10 µM in series [2] (Homo sapiens) is over 30%.

On to `OC(c1cc(C(F)(F)F)nc2c(C(F)(F)F)cccc12)C1CCCCN1` (stereo not shown) [mefloquine], for which, in series [6], the cell number entry is on record as “reductions” and the “levels of Oct4” value is “reductions”. The activity at 10 µM in [2] (setting [9]) is over 30%. Besides, the EC50 in series [2] (Homo sapiens, dose response, v1H9-Oct4-GFP, read-out: EC50 (reduction in GFP intensity)) is under 10 µM. Besides, the “leukemic disease-initiating AML LSC capacity” value in series [7] is recorded as “ineffective”. Moreover, the “AML-blast CFU formation” value in the series with AML patient blast cells (dose not stated in the sentence (0.1, 1, 10 μM tested)) is “reduced”.

As to `CN1CCN(CCCN2c3ccccc3Sc3ccc(Cl)cc32)CC1` [prochlorperazine], the “hit in extended screen (loss of pluripotency)” value in series [2] is given as “hits”.

For `CC[C@@H](C(=O)[C@@H](C)[C@@H](O)[C@H](C)[C@@H]1O[C@@H]([C@@H](CC)C(=O)O)CC[C@@H]1C)[C@H]1O[C@]2(C=C[C@@H](O)[C@]3(CC[C@@](C)([C@H]4CC[C@](O)(CC)[C@H](C)O4)O3)O2)[C@H](C)C[C@@H]1C` [salinomycin], the “HSPC CFU potential” value in series [8] is “reduced”. Besides, the “AML-blast CFU potential” value in the series on AML patient blast cells (1 μM) and with AML patient blast cells (10 μM) was “reduced” throughout.

B1: BMP4: differentiation control, 100 ng/ml of BMP4 (protein, UniProt P12644 293-408, looked up)
Bone morphogenetic protein 4: SPKHHSQRARKKNKNCRRHSLYVDFSDVGWNDWIVAPPGYQAFYCHGDCPFPLADHLNSTNHAIVQTLVNSVNSSIPKACCVPTELSAISMLYLDEYDKVVLKNYQEMVVEGCGCR
Regarding B1, in series [5], the “accumulation of cell stress marker p53” value is on record as “no accumulation” and the “accumulation of p21” value was “no accumulation”.
